The source made the active and inactive calls. No cut-off for these calls is given here. Square brackets hold non-standard residues; d marks the D form. Peptide text beside a SMILES is read from it. Phe(4-I) = N[C@@H](Cc1ccc(I)cc1)C(=O)O; dPhe(4-I) = N[C@H](Cc1ccc(I)cc1)C(=O)O; 2Nal = N[C@@H](Cc1ccc2ccccc2c1)C(=O)O; d2Nal = N[C@H](Cc1ccc2ccccc2c1)C(=O)O A value given as a limit tells only on which side of the number the result lay.

Experiment [1] has as its target T1, Melanocortin receptor 4 (Mus musculus, UniProt P56450). Briefly: Agonist activity at mouse MC4R expressed in HEK293 cells assessed as induction of cAMP level at 100 uM incubated for 2 hr by alphaScreen assay relative to control. The format is functional, cell-based. (cAMP levels reflect the balance of adenylyl cyclase and phosphodiesterase activity.)
Experiment [2] concerns the target T1, Melanocortin receptor 4. Briefly: Antagonist activity at mouse melanocortin receptor 4 expressed in HEK293 cells assessed as inhibition of NDP-MSH-induced cAMP accumulation incubated for 2 hrs by cAMP Alpha-screen assay based Schild analysis. The format is functional, cell-based. Conditions: read-out: pA2 (converted).
Experiment [3] addresses Melanocortin receptor 5 (Mus musculus) (UniProt P41149). Briefly: Agonist activity at mouse MC5R expressed in HEK293 cells assessed as induction of cAMP level at 100 uM incubated for 2 hr by alphaScreen assay relative to control. As to conditions: filed as agonist. It counts as functional, cell-based.
The target in experiment [4] is Melanocortin receptor 3 (Mus musculus) (UniProt P33033). The experiment can be described thus: Agonist activity at mouse MC3R expressed in HEK293 cells assessed as induction of cAMP level at 100 uM incubated for 2 hr by alphaScreen assay relative to control. It counts as functional, cell-based.
Experiment [5] concerns the target Melanocyte-stimulating hormone receptor (Mus musculus) (UniProt Q01727). Briefly: Agonist activity at mouse MC1R expressed in HEK293 cells assessed as induction of cAMP level at 100 uM incubated for 2 hr by alphaScreen assay relative to NDP-MSH. The format is functional, cell-based. Conditions: filed as agonist.
Experiment [6] has as its target T1, Melanocortin receptor 4. The experiment can be described thus: Agonist activity at mouse MC4R expressed in HEK293 cells assessed as induction of cAMP level incubated for 2 hr by alphaScreen assay. It counts as functional, cell-based.
For experiment [7], the target named is T2, Melanocortin receptor 3 (Mus musculus, UniProt P33033). Briefly: (§1) Antagonist activity at mouse melanocortin receptor 3 expressed in HEK293 cells assessed as inhibition of NDP-MSH-induced cAMP accumulation incubated for 2 hrs by cAMP Alpha-screen assay based Schild analysis. Conditions: read-out: pA2 (converted). It counts as functional, cell-based.
Experiment [8] has as its target Melanocortin receptor 3 (Homo sapiens) (UniProt P41968). Briefly: Inhibition of [125 I][Nle 4,D -Phe 7]alpha-MSH binding to human MC3R expressed in African green monkey COS-1 cell membrane by gamma-counter method. The format is cell membranes.
The target of experiment [9] is Melanocortin receptor 4 (Homo sapiens) (UniProt P32245). The experiment can be described thus: Inhibition of [125 I][Nle 4,D -Phe 7]alpha-MSH binding to human MC4R expressed in African green monkey COS-1 cell membrane by gamma-counter method. The format is cell membranes.
Experiment [10] has as its target T2, Melanocortin receptor 3. The experiment can be described thus: Agonist activity at mouse MC3R expressed in HEK293 cells assessed as induction of cAMP level incubated for 2 hr by alphaScreen assay. The format is functional, cell-based.
Experiment [11] has as its target Melanocortin receptor 4 (Mus musculus) (UniProt P56450). Briefly: Antagonist activity at mouse melanocortin receptor 4 expressed in HEK293 cells assessed as inhibition of NDP-MSH-induced cAMP accumulation incubated for 2 hrs by cAMP Alpha-screen assay based Schild analysis.
Experiment [12] has as its target Melanocortin receptor 5 (Mus musculus, UniProt P41149). The experiment can be described thus: Agonist activity at mouse MC5R expressed in HEK293 cells assessed as induction of cAMP level at 100 uM incubated for 2 hr by alphaScreen assay. The format is functional, cell-based.
The target in experiment [13] is Melanocortin receptor 3 (Mus musculus) (UniProt P33033). Described as §1. It counts as functional, cell-based.

T1 sequence (P56450 whole entry): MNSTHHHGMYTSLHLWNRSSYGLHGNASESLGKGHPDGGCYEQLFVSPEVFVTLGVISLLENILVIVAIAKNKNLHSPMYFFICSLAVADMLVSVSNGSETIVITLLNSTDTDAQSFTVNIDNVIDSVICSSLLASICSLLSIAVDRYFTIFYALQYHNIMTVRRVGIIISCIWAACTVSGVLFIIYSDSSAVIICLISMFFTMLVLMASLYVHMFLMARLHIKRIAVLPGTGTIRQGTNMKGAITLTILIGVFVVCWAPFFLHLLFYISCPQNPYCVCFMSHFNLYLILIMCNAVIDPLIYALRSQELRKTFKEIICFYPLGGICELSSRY
T2 sequence (P33033 whole entry): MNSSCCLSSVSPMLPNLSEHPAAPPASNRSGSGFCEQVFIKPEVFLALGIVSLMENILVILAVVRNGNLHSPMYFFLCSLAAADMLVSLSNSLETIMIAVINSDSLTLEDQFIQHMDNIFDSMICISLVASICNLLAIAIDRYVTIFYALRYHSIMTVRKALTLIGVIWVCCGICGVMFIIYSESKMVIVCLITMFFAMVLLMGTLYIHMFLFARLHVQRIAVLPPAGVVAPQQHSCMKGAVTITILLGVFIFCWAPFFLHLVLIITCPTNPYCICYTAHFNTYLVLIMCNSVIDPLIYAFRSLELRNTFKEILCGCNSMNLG
Melanocortin receptor 3 (Mus musculus), sequence (P33033 whole entry): as above
Melanocyte-stimulating hormone receptor (Mus musculus), sequence (Q01727 whole entry, looked up): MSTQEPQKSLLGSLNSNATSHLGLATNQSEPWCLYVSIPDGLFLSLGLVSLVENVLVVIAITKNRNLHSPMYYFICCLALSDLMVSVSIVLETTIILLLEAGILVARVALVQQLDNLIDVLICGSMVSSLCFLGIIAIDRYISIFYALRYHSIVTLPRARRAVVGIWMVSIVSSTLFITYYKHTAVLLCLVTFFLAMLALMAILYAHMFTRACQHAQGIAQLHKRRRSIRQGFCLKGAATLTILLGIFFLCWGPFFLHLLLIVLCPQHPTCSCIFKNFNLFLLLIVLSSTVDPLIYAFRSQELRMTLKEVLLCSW
Melanocortin receptor 5, sequence (P41149 whole entry): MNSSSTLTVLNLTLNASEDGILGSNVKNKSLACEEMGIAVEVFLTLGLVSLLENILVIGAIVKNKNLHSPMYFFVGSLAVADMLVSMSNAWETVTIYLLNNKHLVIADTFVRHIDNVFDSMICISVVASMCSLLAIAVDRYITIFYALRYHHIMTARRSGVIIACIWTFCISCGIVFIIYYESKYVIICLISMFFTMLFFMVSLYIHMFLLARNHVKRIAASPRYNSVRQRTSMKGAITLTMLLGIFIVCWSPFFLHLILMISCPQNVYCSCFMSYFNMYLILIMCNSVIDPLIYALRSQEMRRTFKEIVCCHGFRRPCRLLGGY
Melanocortin receptor 5 (Mus musculus), sequence (P41149 whole entry): as above
Melanocortin receptor 4 (Homo sapiens), sequence (P32245 whole entry): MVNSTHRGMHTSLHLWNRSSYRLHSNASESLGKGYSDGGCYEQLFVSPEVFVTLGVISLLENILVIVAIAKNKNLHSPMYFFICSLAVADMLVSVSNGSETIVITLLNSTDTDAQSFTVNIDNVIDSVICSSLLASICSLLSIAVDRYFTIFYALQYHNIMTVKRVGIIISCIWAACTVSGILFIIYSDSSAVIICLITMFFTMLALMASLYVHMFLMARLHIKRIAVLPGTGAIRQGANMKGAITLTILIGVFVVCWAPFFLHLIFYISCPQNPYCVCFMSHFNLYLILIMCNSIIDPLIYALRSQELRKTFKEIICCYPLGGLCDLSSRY
Melanocortin receptor 3 (Homo sapiens), sequence (P41968 whole entry): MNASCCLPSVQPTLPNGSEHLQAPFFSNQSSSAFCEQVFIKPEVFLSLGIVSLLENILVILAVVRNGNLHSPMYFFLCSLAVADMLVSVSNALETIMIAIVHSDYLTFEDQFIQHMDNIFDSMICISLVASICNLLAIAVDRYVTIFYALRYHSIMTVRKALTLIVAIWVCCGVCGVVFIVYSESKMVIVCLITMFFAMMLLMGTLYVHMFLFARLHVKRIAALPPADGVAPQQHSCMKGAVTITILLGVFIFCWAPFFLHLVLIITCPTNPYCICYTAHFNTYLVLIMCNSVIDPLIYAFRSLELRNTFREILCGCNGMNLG
Melanocortin receptor 4 (Mus musculus), sequence (P56450 whole entry, looked up): as the sequence (P56450 whole entry) above

As usually defined, the EC50 is the concentration at which the effect is half-maximal. As for `CC(=O)N[C@H](Cc1ccc(I)cc1)C(=O)N[C@H](Cc1ccc2ccccc2c1)C(=O)N[C@@H](Cc1ccc2ccccc2c1)C(=O)N[C@H](CCCCN)C(N)=O` (Ac-[dPhe(4-I)][d2Nal][2Nal][dK]-NH2), the half-maximal effective concentration (EC50) in experiment [1] and in experiment [6] was more than 100 µM throughout. In addition, the Kb in experiment [2] and in [7] was more than 3.16 µM in each case. Besides, the Activity in experiment [3] turned out to be 50%; in [4], 20%; in experiment [5], 40%.
With `CC(=O)N[C@@H](Cc1ccc2ccccc2c1)C(=O)N[C@@H](CCCNC(=N)N)C(=O)N[C@@H](Cc1ccc2ccccc2c1)C(N)=O`, the Activity in [8] was 1120 nM; in experiment [9], 11.6 nM.
For `CC(=O)N[C@@H](Cc1ccc(I)cc1)C(=O)N[C@@H](Cc1ccc2ccccc2c1)C(=O)N[C@@H](Cc1ccc(I)cc1)C(=O)N[C@@H](CCCNC(=N)N)C(N)=O` (Ac-[Phe(4-I)][2Nal][Phe(4-I)]R-NH2), the concentration for a half-maximal effect (EC50) in experiment [10], in [12] and in experiment [6] was more than 100 µM throughout. Besides, the pA2 entry in experiment [11] and in [13] was “inactive” throughout. Further, in experiment [5], the Activity was 60%.

For the origin of these results see ChEMBL document CHEMBL4828766 (J Med Chem, 2021).
